From PubChem BioAssay (NCI)
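Assay format: 96-well plates, 48-hour exposure. GI50 marks 50% less growth. TGI denotes the concentration required for complete inhibition of growth.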

Tests used:
Test in all cases: growth of human tumour cells (NCI), 48 h
BT-549 breast = test system: BT-549 breast
M14 melanoma = test system: M14 melanoma
A549 NSCLC = test system: A549 NSCLC
K-562 leukemia = test system: K-562 leukemia
IGROV1 ovarian = test system: IGROV1 ovarian
TK-10 renal = test system: TK-10 renal
HOP-92 NSCLC = test system: HOP-92 NSCLC
EKVX NSCLC = test system: EKVX NSCLC
NCI-H522 lung = test system: NCI-H522 lung
OVCAR-5 ovarian = test system: OVCAR-5 ovarian

CC(C)CCCC(C)[C@H]1CC[C@H]2n3c(nc4ccccc43)CCC[C@]12C (stereo partly drawn)
TGI (BT-549 breast): 35.7 µM
TGI (M14 melanoma): 35.4 µM
TGI (A549 NSCLC): 50.3 µM
TGI (K-562 leukemia): 36.5 µM
TGI (IGROV1 ovarian): 34.6 µM
TGI (TK-10 renal): 38.2 µM
TGI (HOP-92 NSCLC): 37.3 µM

CCOC(=O)CCC(C(=O)OCC)n1nc2ccc(Nc3c(C)[n+]([O-])c4cc(F)c(OCC)cc4[n+]3[O-])cc2n1 (stereo not drawn)
TGI (BT-549 breast): > 100 µM
TGI (M14 melanoma): > 100 µM
TGI (A549 NSCLC): > 100 µM
TGI (K-562 leukemia): > 100 µM
TGI (EKVX NSCLC): 98.1 µM
TGI (NCI-H522 lung): > 100 µM
TGI (IGROV1 ovarian): > 100 µM
TGI (TK-10 renal): > 100 µM
TGI (HOP-92 NSCLC): 87.8 µM
TGI (OVCAR-5 ovarian): > 100 µM

CON(C)C(=O)[C@H]1C[C@@]1(C)CO
TGI (BT-549 breast): > 100 µM
TGI (M14 melanoma): > 100 µM
TGI (A549 NSCLC): > 100 µM
TGI (K-562 leukemia): > 100 µM
TGI (EKVX NSCLC): > 100 µM
TGI (IGROV1 ovarian): > 100 µM
TGI (TK-10 renal): > 100 µM
TGI (HOP-92 NSCLC): > 100 µM
TGI (OVCAR-5 ovarian): > 100 µM

CCc1n[nH]c(=O)n1/N=C(\C)c1ccc([N+](=O)[O-])cc1
TGI (BT-549 breast): > 100 µM
TGI (M14 melanoma): > 100 µM
TGI (A549 NSCLC): > 100 µM
TGI (K-562 leukemia): > 100 µM
TGI (EKVX NSCLC): > 100 µM
TGI (IGROV1 ovarian): > 100 µM
TGI (TK-10 renal): > 100 µM
TGI (HOP-92 NSCLC): > 100 µM
TGI (OVCAR-5 ovarian): > 100 µM

C=C1C(=O)O[C@@H]2/C=C(\C)CC/C=C(\C)CC[C@@]12O
TGI (BT-549 breast): 7.81 µM
TGI (M14 melanoma): 10.5 µM
TGI (A549 NSCLC): 27.1 µM
TGI (K-562 leukemia): 12.6 µM
TGI (EKVX NSCLC): 12.1 µM
TGI (NCI-H522 lung): 1.38 µM
TGI (IGROV1 ovarian): 7.63 µM
TGI (TK-10 renal): 3.42 µM
TGI (HOP-92 NSCLC): 3.63 µM
TGI (OVCAR-5 ovarian): 25.8 µM

CNC1Cc2c[nH]c3cccc(c23)C12C=C(C)C(=O)O2 (stereo not drawn)
TGI (BT-549 breast): > 100 µM
TGI (M14 melanoma): > 100 µM
TGI (A549 NSCLC): > 100 µM
TGI (K-562 leukemia): > 100 µM
TGI (EKVX NSCLC): > 100 µM
TGI (NCI-H522 lung): > 100 µM
TGI (IGROV1 ovarian): > 100 µM
TGI (TK-10 renal): > 100 µM
TGI (HOP-92 NSCLC): > 100 µM
TGI (OVCAR-5 ovarian): > 100 µM

COC(=O)C1=C(C)N2CCSC2(C)C(C(=O)OC)C1c1cccc(Cl)c1 (stereo not drawn)
TGI (M14 melanoma): 89.3 µM
TGI (A549 NSCLC): 65.3 µM
TGI (K-562 leukemia): > 100 µM
TGI (EKVX NSCLC): 42.1 µM
TGI (IGROV1 ovarian): > 100 µM
TGI (TK-10 renal): > 100 µM
TGI (HOP-92 NSCLC): 53.2 µM

OCC(O)CNc1ncnc2ccccc12 (stereo not drawn)
TGI (BT-549 breast): > 100 µM
TGI (M14 melanoma): > 100 µM
TGI (A549 NSCLC): > 100 µM
TGI (K-562 leukemia): > 100 µM
TGI (EKVX NSCLC): > 100 µM
TGI (NCI-H522 lung): > 100 µM
TGI (IGROV1 ovarian): > 100 µM
TGI (TK-10 renal): > 100 µM
TGI (HOP-92 NSCLC): > 100 µM
TGI (OVCAR-5 ovarian): > 100 µM

CC(C)(C)c1ccc2c(c1)C#Cc1cc(C(C)(C)C)ccc1OCCCO2
TGI (BT-549 breast): > 100 µM
TGI (M14 melanoma): > 100 µM
TGI (A549 NSCLC): > 100 µM
TGI (K-562 leukemia): > 100 µM
TGI (EKVX NSCLC): > 100 µM
TGI (NCI-H522 lung): > 100 µM
TGI (IGROV1 ovarian): > 100 µM
TGI (TK-10 renal): > 100 µM
TGI (OVCAR-5 ovarian): > 100 µM

CC(C)(C)OC(=O)N1C(OP(=O)(Oc2ccccc2)Oc2ccccc2)=CSc2ccccc21
TGI (BT-549 breast): > 100 µM
TGI (M14 melanoma): 68.6 µM
TGI (A549 NSCLC): > 100 µM
TGI (K-562 leukemia): > 100 µM
TGI (EKVX NSCLC): > 100 µM
TGI (NCI-H522 lung): > 100 µM
TGI (IGROV1 ovarian): > 100 µM
TGI (TK-10 renal): > 100 µM
TGI (HOP-92 NSCLC): 80.9 µM
TGI (OVCAR-5 ovarian): > 100 µM

CC[C@@]1(O)C(=O)OCc2c1cc1n(c2=O)Cc2cc3ccccc3nc2-1
TGI (BT-549 breast): 2.6 µM
TGI (M14 melanoma): 1.8 µM
GI50 (A549 NSCLC): 0.0157 µM
TGI (A549 NSCLC): 2.51 µM
GI50 (K-562 leukemia): 0.0514 µM
TGI (K-562 leukemia): 45.6 µM
TGI (EKVX NSCLC): 1.6 µM
TGI (NCI-H522 lung): 0.596 µM
TGI (IGROV1 ovarian): 11.3 µM
TGI (TK-10 renal): 51.2 µM
TGI (HOP-92 NSCLC): 0.131 µM
GI50 (OVCAR-5 ovarian): 0.111 µM
TGI (OVCAR-5 ovarian): 1.04 µM

CCN1c2cc(Br)cc3[nH]c(=O)n(c23)CCC1C (stereo not drawn)
TGI (BT-549 breast): 31.2 µM
TGI (M14 melanoma): 34.8 µM
TGI (A549 NSCLC): 35.1 µM
TGI (K-562 leukemia): > 100 µM
TGI (EKVX NSCLC): 23.5 µM
TGI (IGROV1 ovarian): 31.5 µM
TGI (TK-10 renal): 49.2 µM
TGI (HOP-92 NSCLC): 9.25 µM
TGI (OVCAR-5 ovarian): 49.9 µM

Cc1c(/C=N/NC(=S)Nc2ccc(Cl)cc2)c(=O)n(-c2ccccc2)n1C
TGI (M14 melanoma): > 100 µM
TGI (A549 NSCLC): > 95.9 µM
TGI (K-562 leukemia): > 100 µM
TGI (EKVX NSCLC): > 65.2 µM
TGI (NCI-H522 lung): 22.4 µM
TGI (IGROV1 ovarian): 45.2 µM
TGI (TK-10 renal): > 58.3 µM
TGI (OVCAR-5 ovarian): > 100 µM

CCOC(=O)C1(C/C=C/CCl)CCCC1=O (stereo not drawn)
TGI (BT-549 breast): 40.8 µM
TGI (M14 melanoma): 38.5 µM
TGI (A549 NSCLC): 49.4 µM
TGI (EKVX NSCLC): 37.9 µM
TGI (NCI-H522 lung): 47 µM
TGI (IGROV1 ovarian): 42 µM
TGI (TK-10 renal): 68.4 µM
TGI (OVCAR-5 ovarian): 39.1 µM

O=C(NC(Cc1ccc(Br)cc1)C(=O)O)c1ccc(I)cc1 (stereo not drawn)
TGI (A549 NSCLC): > 100 µM
TGI (K-562 leukemia): > 100 µM
TGI (EKVX NSCLC): > 100 µM
TGI (NCI-H522 lung): > 100 µM
TGI (IGROV1 ovarian): > 100 µM
TGI (HOP-92 NSCLC): > 100 µM
TGI (OVCAR-5 ovarian): > 100 µM

Nc1ccc(O)c2c1C(=O)c1c(N)ccc(O)c1C2=O
TGI (M14 melanoma): > 100 µM
TGI (A549 NSCLC): > 100 µM
TGI (K-562 leukemia): > 100 µM
TGI (EKVX NSCLC): > 100 µM
TGI (NCI-H522 lung): > 100 µM
TGI (IGROV1 ovarian): > 100 µM
TGI (TK-10 renal): > 100 µM
TGI (HOP-92 NSCLC): > 100 µM
TGI (OVCAR-5 ovarian): > 100 µM

Clc1cc(Cl)c2cc3cccc[n+]3cc2c1Cl
TGI (BT-549 breast): 23.3 µM
TGI (M14 melanoma): 39 µM
TGI (A549 NSCLC): 34.1 µM
TGI (K-562 leukemia): 45.4 µM
TGI (EKVX NSCLC): 30.8 µM
TGI (TK-10 renal): 40.2 µM
TGI (HOP-92 NSCLC): 21.7 µM
TGI (OVCAR-5 ovarian): 38.7 µM

OC[C@H]1NC[C@@H](O)[C@@H](O)[C@H]1O
TGI (BT-549 breast): > 100 µM
TGI (M14 melanoma): > 100 µM
TGI (K-562 leukemia): > 100 µM
TGI (IGROV1 ovarian): > 100 µM
TGI (TK-10 renal): > 100 µM
TGI (HOP-92 NSCLC): > 100 µM
TGI (OVCAR-5 ovarian): > 100 µM

CSc1nc(CO)c(CO)n1C
TGI (A549 NSCLC): > 100 µM
TGI (K-562 leukemia): > 100 µM
TGI (EKVX NSCLC): > 100 µM
TGI (NCI-H522 lung): > 100 µM
TGI (IGROV1 ovarian): > 100 µM
TGI (HOP-92 NSCLC): > 100 µM
TGI (OVCAR-5 ovarian): > 100 µM

COc1cc(/C=C2\N=C(c3ccccc3)N(c3ccc(C(=O)c4ccccc4)cc3N3C(=O)/C(=C/c4ccc(O)c(OC)c4)N=C3c3ccccc3)C2=O)ccc1O
TGI (BT-549 breast): > 100 µM
TGI (M14 melanoma): 25.1 µM
TGI (A549 NSCLC): 62.7 µM
TGI (K-562 leukemia): 53 µM
TGI (EKVX NSCLC): 76.4 µM
TGI (IGROV1 ovarian): 29.7 µM
TGI (TK-10 renal): 51.9 µM
TGI (HOP-92 NSCLC): > 100 µM
TGI (OVCAR-5 ovarian): 95.5 µM

CN(Cc1cn(O)c2nc(=N)nc(N)c-2n1)c1ccc(C(=O)NC23CC4CC(CC(C4)C2)C3)cc1
TGI (BT-549 breast): 79.1 µM
TGI (M14 melanoma): > 100 µM
TGI (K-562 leukemia): > 100 µM
TGI (EKVX NSCLC): > 100 µM
TGI (IGROV1 ovarian): > 100 µM
TGI (TK-10 renal): > 100 µM
TGI (OVCAR-5 ovarian): > 100 µM

CN(C)CCNC(=O)c1cc(Cl)cc2cc3ccccc3nc12
TGI (A549 NSCLC): 3.88 µM
TGI (EKVX NSCLC): 4.81 µM
TGI (IGROV1 ovarian): 8.32 µM
TGI (OVCAR-5 ovarian): 1.97 µM

C[C@@H]1C(=O)O[C@H]1[C@H](O)CO
TGI (BT-549 breast): > 100 µM
TGI (M14 melanoma): > 100 µM
TGI (A549 NSCLC): > 100 µM
TGI (EKVX NSCLC): > 100 µM
TGI (TK-10 renal): > 100 µM
TGI (HOP-92 NSCLC): > 100 µM
TGI (OVCAR-5 ovarian): > 100 µM

CC(=O)O[C@H]1CC[C@H]2[C@@H]3CCC4=CC(=O)C=C[C@]4(O)[C@H]3CC[C@]12C
TGI (BT-549 breast): > 79.8 µM
TGI (M14 melanoma): > 100 µM
TGI (A549 NSCLC): > 87.9 µM
TGI (K-562 leukemia): 27.5 µM
TGI (EKVX NSCLC): > 80.7 µM
TGI (IGROV1 ovarian): > 100 µM
TGI (TK-10 renal): > 100 µM
TGI (HOP-92 NSCLC): 92.3 µM
TGI (OVCAR-5 ovarian): > 100 µM
